What was measured:
Format in all cases: in vivo
[1] = system: neonicotinoid insecticide resistant aphid strain; test: Leaf disc spray bioassay on chinese cabbage, aphid mortality (Example 1), resistant strain; settings: resistant aphid strain from peach orchard, Avignon region, mixed age aphids, mortality 72 hours after treatment
Procedure: (§1) 5 cm leaf discs were taken from fully expanded chinese cabbage leaves and placed with the underside facing upwards onto water agar in 5 cm Petri dishes. The leaf discs are infested with between 30 and 40 mixed age aphids 24 hours prior to insecticide treatment. The leaf surface is sprayed with the appropriate test solutions in a Burkhard Potter Tower at an approximate water volume of […]. Test containers are stored at 21° C., 60% RH and 16:8 light/dark. Aphids were assessed for mortality 72 hours after treatment.

[2] = system: neonicotinoid insecticide susceptible strain 4106A; test: Leaf disc spray bioassay on chinese cabbage, aphid mortality (Example 1), susceptible strain; settings: susceptible strain 4106A (Rothamsted Research), mixed age aphids, mortality 72 hours after treatment
Procedure: as §1

[3] = system: susceptible or neonicotinoid-resistant Myzus persicae population; test: Pea seedling spray test, mortality of susceptible and neonicotinoid-resistant populations (Example 2); settings: ratio of rates for 80% mortality, resistant versus susceptible Myzus persicae; BP80 = lowest known rate providing 80% or more mortality; 6 days after treatment; pea seedlings
Procedure: Pea seedlings, infested with a susceptible or neonicotinoid-resistant Myzus persicae population of mixed ages, respectively, are treated with the test solutions (200, 50, 12.5, 3, 0.8, 0.2, 0.05 ppm a.i.) in a turn table spray chamber. 6 days after treatment, samples are checked for mortality.
The results of the resistance factor at BP80 (lowest known rate providing 80% or more mortality) are indicated below.

Compound	LC50 with 95% confidence limit, resistant strain [1]	LC50 with 95% confidence limit, susceptible strain [2]	resistance factor at BP80 [3]
CN/C(=N\[N+](=O)[O-])NCc1cnc(Cl)s1 [clothianidin]	904 (478-3616) ppm	0.33 (0.28-0.38) ppm	
O=C(c1cnccc1C(F)(F)F)N(O)Cc1ccccc1 [323181-02-8]			>1
C/C(=N\C#N)N(C)Cc1ccc(Cl)nc1 [acetamiprid]	49.3 (35.2-72.0) ppm	0.55 (0.51-0.59) ppm	
CNC(=O)c1cnccc1C(F)(F)F [158062-76-1]			1
N#CCNC(=O)c1cnccc1C(F)(F)F [flonicamid]	2.74 (0.53-6.81) ppm	1.65 (1.3-2.09) ppm	
CN(O)C(=O)c1cnccc1C(F)(F)F [323180-93-4]			Not adequate control for 80% mortality on sensitive & resistance strains
NC(=O)c1cnccc1C(F)(F)F [158062-71-6]			4
CN(C)C(=O)c1cnccc1C(F)(F)F [158063-01-5]			1.7
CCN(Cc1ccc(Cl)nc1)/C(=C/[N+](=O)[O-])NC [nitenpyram]	237 (93.7-3566) ppm	1.26 (1.03-1.61) ppm	
CO/N=C(\C)CNC(=O)c1cnccc1C(F)(F)F			4
N#C/N=C1\SCCN1Cc1ccc(Cl)nc1 [thiacloprid]	>1000 ppm	0.38 (0.34-0.42) ppm	
CN1COCN(Cc2cnc(Cl)s2)/C1=N/[N+](=O)[O-] [thiamethoxam]	148 (128-172) ppm	0.35 (0.3-0.41) ppm	>250
O=C(N=S(c1ccccc1)c1ccccc1)c1cnccc1C(F)(F)F [362724-14-9]			4
Cc1noc(-c2cnccc2C(F)(F)F)n1 [276684-49-2]			<1
CC(C)N1CN=C(c2cnccc2C(F)(F)F)OC1=O [1098412-17-9]			1
O=C(NCc1ccc(Cl)cc1)c1cnccc1C(F)(F)F [158063-19-5]			>16
O=C(NCc1ccccn1)c1cnccc1C(F)(F)F [164149-37-5]			4
O=C(NCN1CCCC1)c1cnccc1C(F)(F)F [158063-50-4]			1
CN/C(=N/CC1CCOC1)N[N+](=O)[O-] (stereo not drawn) [dinotefuran]	538 (435-696) ppm	9.95 (8.21-12.5) ppm	

From patent US20130231334A1, “METHODS OF CONTROLLING NEONICOTINOID RESISTANT APHIDS” (SYNGENTA CROP PROTECTION LLC, priority 2010, published 2013)
